This test has as its system explants of human skin. The experiment in a line: Release of histamine induced by CRH in explants of human skin (ex vivo cutaneous stress model, ELISA). In kind it is cell-based. On the procedure:
To evaluate the activity of the combination of the invention on the release of histamine, which is an allergy mediator, a cutaneous stress model is reproduced ex vivo by applying a solution of CRH in the survival medium of explants of human skin.
Three explants of skin with a diameter of 8 mm are prepared from healthy human skin originating from surgical removal.
They are placed in 24-well plates and left to stand in an appropriate medium (MCDB 153, insulin, CaCl2, gentamycin) for 24 hours.
CRH (from Neosystem) is dissolved at a concentration of 231 μM in phosphate buffer (PBS) (pH 7.2).
First of all a 5% by weight (50 mg/ml) solution is prepared for each of the essential oils, in ethanol for the helichrysum oil and in DMSO for the cannabis oil.
The 5% by weight solutions are subsequently diluted at the time of use to 1/1000th in the survival medium of the explants, to give the different treatment solutions.
The combination of cannabis and helichrysum essential oils is tested in the form of a treatment solution containing these two essential oils, each at a concentration of 0.005% by weight (50:50 ratio). Each essential oil is likewise tested on its own in the form of a 0.005% by weight treatment solution.
In each well the explant is at the surface of the survival medium. […]
For orientation: An ELISA detects its analyte on a solid surface through an enzyme-linked reagent.

No end group written: not given here.

As for “corticotropin-releasing hormone (SEEPPISLDLTFHLLREVLEMARAEQLAQQAHSNRKLMEII; not fully specified (C-terminus); ends and bridges not checked; UniProt P06850 154-194, looked up) [CRH, CRH (from Neosystem), stimulus of histamine release, positive control]”, the “Stimulation of the release of histamine by skin explants (in words)” value (CRH on skin explants maintained in survival mode) is listed as “induces significant stimulation of the release of histamine”. In addition, under “stimulated with CRH 7.7 μM for 2 hours, no essential oil pretreatment (positive control), solvent control 15.3 +/− 1.0”, the Histamine is 21.8 ± 1.4 ng/mL.

Source of the values: US9078838B2, “Cosmetic or dermatological compositions comprising a mixture of essential oils, and its uses thereof, particularly for the care of sensitive or sensitized skin” (LVMH Recherche, priority 2008, dated 2015).
